Our source for the ED50, IC50 and Ki values is ChEMBL document CHEMBL1139501, “Synthesis and biological evaluation of benzodioxanylpiperazine derivatives as potent serotonin 5-HT(1A) antagonists: the discovery of Lecozotan” (J Med Chem, 2005).

The test system of experiment [1] is Rattus norvegicus. As to the kind of experiment: Effective dose on the 8-OH-DPAT induced response at 3 mg/kg sc in presence of 8-OH-DPAT (Effective dose value for 8-OH-DPAT = 0.17). Particulars: route subcutaneous. It counts as functional.
For experiment [2], the target named is T1, 5-hydroxytryptamine receptor 1A (Homo sapiens, UniProt P08908).
T1 sequence (P08908 whole entry): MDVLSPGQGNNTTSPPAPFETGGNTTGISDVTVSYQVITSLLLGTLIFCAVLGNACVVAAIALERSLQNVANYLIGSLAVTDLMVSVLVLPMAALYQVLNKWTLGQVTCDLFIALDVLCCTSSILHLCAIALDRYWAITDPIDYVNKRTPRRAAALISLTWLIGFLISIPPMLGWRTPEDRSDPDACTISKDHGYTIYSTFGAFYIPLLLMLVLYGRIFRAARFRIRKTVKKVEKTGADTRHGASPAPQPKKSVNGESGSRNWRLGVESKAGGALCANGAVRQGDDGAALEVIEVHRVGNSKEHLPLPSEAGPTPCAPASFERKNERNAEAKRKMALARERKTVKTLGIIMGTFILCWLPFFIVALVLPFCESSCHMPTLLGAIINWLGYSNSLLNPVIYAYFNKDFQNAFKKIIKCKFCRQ

The test system of experiment [3] is Rattus norvegicus. As to the kind of experiment: Effective dose on the 8-OH-DPAT induced response at 3 mg/kg sc in presence of 8-OH-DPAT (Effective dose value for 8-OH-DPAT = 0.18). It counts as functional. Particulars: route subcutaneous.
Experiment [4] addresses T1, 5-hydroxytryptamine receptor 1A. As to the kind of experiment: biochemical.
Experiment [5] has the same target. The source holds these as a separate data set.
Experiment [6] deals with Rattus norvegicus. As to the kind of experiment: Effective dose on the 8-OH-DPAT induced response at 3 mg/kg sc in presence of 8-OH-DPAT (Effective dose value for 8-OH-DPAT = 0.32). Particulars: route subcutaneous. It counts as functional.
Experiment [7] has as its system Rattus norvegicus. As to the kind of experiment: Effective dose on the 8-OH-DPAT induced response at 3 mg/kg sc in presence of 8-OH-DPAT (Effective dose value for 8-OH-DPAT = 0.25). The settings on record: route subcutaneous. It counts as functional.

The term ED50 denotes the dose at which the effect has come halfway, by size or by number of responders. On to `C[C@H](CN(C(=O)c1ccc(Cl)cc1)c1ccccn1)N1CCN(c2cccc3c2OCCO3)CC1`, for which the ED50 in experiment [1] came to 1.82 mg/kg.
Usually IC50 stands for the midpoint of a concentration-inhibition curve. Higher therefore signals a need for much substance. In experiment [2], `C[C@H](CN(C(=O)c1ccc(C#N)cc1)c1ccccn1)N1CCN(c2cccc3c2OCCO3)CC1` [LECOZOTAN] registered an IC50 of 42 nM. Also, the ED50 in experiment [3] stood at 3.68 mg/kg.
By Ki is commonly meant a dissociation constant, usually derived from enzyme kinetics or from competition with a known ligand. A high value points to a looser hold on the target. Turning to `C[C@@H](CN(C(=O)c1ccc([N+](=O)[O-])cc1)c1ccccn1)N1CCN(c2cccc3c2OCCO3)CC1`, the affinity in experiment [4], expressed as Ki, was 3.4 nM.
On to `C[C@@H](CN(C(=O)c1ccc(C(F)(F)F)cc1)c1ccccn1)N1CCN(c2cccc3c2OCCO3)CC1`, for which the affinity in experiment [4] corresponds to a Ki of 8.6 nM.
On to `C[C@H](CN(C(=O)c1ccc(C(F)(F)F)cc1)c1ccccn1)N1CCN(c2cccc3c2OCCO3)CC1`, for which the IC50 in experiment [2] was found to be 32.1 nM; in experiment [5] it was 6.2 nM. For the same compound, the ED50 in experiment [6] turned out to be 0.94 mg/kg. Moreover, the inhibition constant (Ki) in experiment [4] amounted to 1.9 nM.
On to `C[C@@H](CN(C(=O)c1ccc(C#N)cc1)c1ccccn1)N1CCN(c2cccc3c2OCCO3)CC1`, for which the Ki in experiment [4] worked out at 9.2 nM.
Regarding `C[C@H](CN(C(=O)c1ccc([N+](=O)[O-])cc1)c1ccccn1)N1CCN(c2cccc3c2OCCO3)CC1`, the ED50 in experiment [7] is 3.19 mg/kg. The IC50 in experiment [2] amounted to 23.2 nM; in experiment [5], 4.3 nM. The Ki in experiment [4] stood at 1 nM.
